Measurements as given in US20090054507A1, “CONTROL OF MALIGNANT CELLS BY KINASE INHIBITION” (CLEVELAND STATE UNIVERSITY, priority 2006, published 2009).

Columns and labels:
MEG-01 cells [1] = assay: Viability (proliferation) assay, Trypan blue exclusion, MEG-01; type: cell-based, human
tumor tissue and organs = assay: Hematoxylin & eosin staining of tumor tissue and organs of treated xenograft mice (all cell lines); type: in vivo
Experimental: Hematoxylin & eosin staining of tumor tissue and organs. After euthanasia with CO2, mice were supposed to necropsy. Tumors were collected from under the skin from both flanks and were measured for the last time and then fixed in formalin fixative. Spleen, liver, kidney, brain, lungs and legs were collected and fixed. Spleens were also measured (as length, […]). Fresh tissue was immersed immediately into liquid nitrogen and kept frozen at −80° C. Fixed tissue was embedded in paraffin and next processed for H&E (the basic dye hematoxylin, and the alcohol-based synthetic material, eosin) by the Cleveland Clinic Histology Core facility. Sections (4-μm thick) were stained with hematoxylin and eosin and evaluated for pathologic changes in a blinded fashion. H&E staining gives morphological information (vascularization, normal proliferating tissue, necrosis and apoptosis of the tissue).

SW-480 cells = assay: Anchorage independence in soft agar, SW-480; type: cell-based, human; conditions: DMAT 10 μM, one week
MCF-7 xenografts = assay: In vivo therapy of MCF-7 xenografts, tumor volume; parameters: species or system mice
Excerpt: Creation of the xenografts MCF-7, SW-480 and WM-164. Immunodeficient male and female athymic nude nu/nu mice were used, provided and housed by Dr. Lindner, DJ from Taussig Cancer Center, Cleveland Clinic and Case Western Reserve University. Mice were checked every day. Mice were housed in filtered air flow cabinets with autoclaved bedding at a density of 5 mice/cage. They were fed autoclaved Purina Lab Rodent Chow® 5010 and HCl-acidified distilled water ad libitum and were placed in rooms with controlled temperature, humidity and 12-hr light-dark cycles. Procedures involving animals and their care were conducted in conformity with the institutional guidelines that are in compliance with national and international laws and policies (EEC Council Directive 86/609, OJL 358, Dec. 1, 1987, and the National Institutes of Health Guide for the Care and Use of Laboratory, Animals, NIH Publication 85-23, 1985).
For engraftment, cells in cell culture media were injected. […] Cells were counted with a hemacytometer using Trypan blue (only live cells were counted). […]
In vivo therapy with DMAT of MCF-7 xenografts. […] Tumor diameters were measured using a caliper and tumor volume was calculated using the prolate-spheroid formula. […]

tumors of U-87 cells = assay: Murine xenograft of U-87 cells, tumor volume; type: in vivo, mice; conditions: DMAT at effective dosage levels (in DMSO) per animal per day, approximately 24 days
Experimental: FIG. 96 illustrates the effect of administration of DMAT as compared to a control, i.e. DMSO, for a period of approximately 24 days. FIG. 96 is a graph of a murine xenograft treated with DMAT, compared to a control. Mice with tumors of U-87 cells were treated with DMAT at effective dosage levels (in DMSO) per animal per day. The daily animal weight was averaged at 32.5 g at the start of treatment. Tumors were measured daily and tumor volumes were calculated based upon a prolate spheroid model. FIG. 96 illustrates the significant benefits of treatment with DMAT (squares) as compared to the control (diamonds).

MEG-01 cells [2] = assay: RPE-CD41a (αIIbβ3 integrin) flow cytometric immunophenotyping, maturation of MEG-01; type: cell-based, human; conditions: 10 μM DMAT vs control untreated
Experimental: Flow cytometric analysis. Cells were analyzed using a FACSCalibur flow cytofluorometer (Becton-Dickinson), with CellQuestPro ver. 3.3 software. The data was further analyzed with FlowJo ver. 6.2, and WinMDI 2.8 software. Proper gating was performed to characterize each cell population (MEG-01 cells and platelets). The population that corresponds to platelets (small, granulated particles), is PI negative because thrombocytes are anucleated cells (only the viable cells were considered) and were distinguished by their capacity to become activated, undergoing shape change in response to agonist and to show phosphatidylserine (PS) exposure when activated. Platelets were further separated from the megakaryocytic cells, by differential centrifugation, considering the size difference between these cell populations (1-5 μm for platelets and 35-150 μm for megakaryocytic cell line MEG-01) and analyzed separately. Voltage and channels settings were adjusted accordingly. Analyzed values were obtained with WinMDI ver. 2.8.
RPE-CD41a immunophenotyping of MEG-01 cells. CD41a is the antigen for αIIbβ3 complex and it is found on platelets and platelet precursors, including MEG-01 cell line. αIIbβ3 complex is a marker of differentiation for megakaryocytes. […] Cells were counted and adjusted to 10^6 cells/ml and 20 μl of RPE-CD41a was used for 180 μl cell suspension. […]

SMILES: CN(C)c1nc2c(Br)c(Br)c(Br)c(Br)c2[nH]1 [DMAT, 2-dimethylamino-4,5,6,7-tetrabromo-1H-benzimidazole]
- proliferation of MEG-01 cells (Trypan Blue exclusion) (MEG-01 cells [1]; 25 μM DMAT, compared with 5 nM PMA): level of decrease was similar
- cell number / proliferation rate of MEG-01 cells (MEG-01 cells [1]; 50 μM DMAT, 4 days of treatment): maintained a steady number of cells
- necrotic and apoptotic areas of tumors from treated mice vs untreated (DMSO) control tumors (tumor tissue and organs; all tumors, hematoxylin-eosin staining): high necrotic and apoptotic areas
- other organs of treated mice, hematoxylin-eosin staining (tumor tissue and organs; mouse, in vivo): appeared normal
- colonies in soft agar (SW-480 cells): much smaller and fewer colonies
- tumor volume (MCF-7 xenografts; DMAT 10 mg/kg (in DMSO) per day, 13 day period, control about 50 to about 1750 mm^3): remarkably stable size and nearly no increase
- response of xenograft tumors to treatment (summary) (MCF-7 xenografts; mouse, in vivo): tumor ablation
- tumor growth vs untreated control (tumors of U-87 cells): significantly less cancerous growth
- maturation level (αIIbβ3 integrin expression, RPE-CD41a) (MEG-01 cells [2]): significant maturation levels
